Source: patent US8232070B2, “DNP63A gene and screening methods of anticancer agent by using it” (Seoul National University Industry Foundation, priority 2007, dated 2012)
Peptide text beside a SMILES is read from it. * marks the point of attachment. Cbz = O=C(OCc1ccccc1)*

What was measured:
ΔNp63α [1] = experiment: ΔNp63α protein amount and stability in ME180 carcinoma cells after TNF-α treatment (cyclohexamide chase, FIG. 1); format: cell-based
Description: After TNF-α treatment for 16 hours, cyclohexamide which inhibit protein synthesis was added and the samples were obtained at the indicated time-points and observed for changes of protein stability. As a result, the protein degradation began after 4 hours of treatment with cyclohexamide.
Previously, ME180, ΔNp63α overexpressing carcinoma, was treated with TNF-α (tumor necrosis factor-alpha) which induces cell death. Also, the changes of the amount of ΔNp63α protein were observed. […] It is identified that such degradation of ΔNp63α was proceeded by specific mechanism, that is, by proteasome-mediated mechanism (FIG. 1). Protein degradation pathways could be usually classified in large into two groups, the first one is a degradation pathway by a protease after its polyubiquitination and movement to proteases, and the other one is a degradation pathway by a caspases.

ΔNp63α [2] = experiment: Intracellular location of GFP-fused ΔNp63α in transformed ME180 cells, fluorescence microscopy (FIG. 2); format: cell-based; details: ME180 transformed with pEGFP-ΔNp63α
Excerpt: The recombinant vector constructed by the present inventor had fused ΔNp63α next to pEGFP-C1. The advantage of GFP is to observe easily in microscopy because GFP emit the green light at the specific absorbance (Excitation maximum=488 nm; emission maximum=507 nm). […] GFP is inherently expressed all over the area of cell, however, it was identified that GFP expression was observed only in the nucleus after GFP fused with ΔNp63α.
As a signal of cell death induction, the intracellular location and expression patterns of ΔNp63α were observed. In detail, it was observed variation aspect and cell location of ΔNp63α with a time span, 0 hr, 1 hr, 2 hr and 4 hr with fluorescence microscope, after cloning ΔNp63α gene into the vector expressing Green Fluorescence Protein (GFP), expressing for a certain time by transformation into carcinoma cell, treating TNF-α which induce cell death, carcinoma cells being transformed and then the protein being expressed for a certain time. As a result, it was observed similar aspect of aggreasome, which looks like complex of preteasome, because ΔNp63α, which had been known to locate only in nucleus, moved from nucleus to cytoplasm about 2 hr after treatment of TNF-α (FIG. 2). […]

| Compound | ΔNp63α protein degradation with proteasome inhibitor co-treatment (ΔNp63α [1]; MG132 20 nM together with cyclohexamide after TNF-α treatment for 16 hours) | change of ΔNp63α protein location after treatment (ΔNp63α [2]) | time at which ΔNp63α moved from nucleus to cytoplasm after treatment (ΔNp63α [2]; observed at 0 hr, 1 hr, 2 hr and 4 hr) | amount of ΔNp63α protein after treatment (ΔNp63α [1]; ME180 cells, ΔNp63α overexpressing carcinoma) | time at which ΔNp63α protein degradation began after addition of cyclohexamide (ΔNp63α [1]; TNF-α treatment for 16 hours, then cyclohexamide added) |
| --- | --- | --- | --- | --- | --- |
| CC(C)C[C@@H](C=O)NC(=O)[C@H](CC(C)C)NC(=O)[C@H](CC(C)C)NC(=O)OCc1ccccc1 [MG132, reference compound] (Cbz-Leu-Leu-Leu-aldehyde) | wasn't degraded and stabilized even after 4 hours | – | – | – | – |
| TNF-α | – | from the nucleus to the cytoplasm | about 2 hr | decreased rapidly | 4 h |
